Row | SMILES | melting point [°C]
1 | COc1cc(C=O)c(OC)c(C)c1C | 69 to 71
2 | O=c1[nH]c2cc(C(F)(F)F)c([N+](=O)[O-])c(Cl)c2[nH]c1=O | 343 to 347
3 | CC(CCC(N)=O)C1CC=C2C3=C(CCC21C)C1(C)CCC(O)C(C)(C)C1CC3 (configuration not stated) | 233 to 235
4 | NS(=O)(=O)c1ccc(-c2c(-c3ccccc3)noc2COCC(F)(F)C(F)(F)CO[N+](=O)[O-])cc1 | 46
5 | CC(C1CC(c2ccc(C(F)(F)F)cc2)C1)N(O)C(N)=O (configuration not stated) | 147 to 148
6 | COC(=O)CC(C)(C)C(=O)c1ccc2c(c1)CC(N1C(=O)c3ccccc3C1=O)C2 (configuration not stated) | 115 to 117
7 | CNC(=O)Nc1c(C)nn(-c2cc(OC(C)C)c(Cl)cc2F)c1C | 184 to 185
8 | CC12CCC(O)CC1=CCC1C2CCC2(C)C(n3cnc4ccccc43)=CCC12 (configuration not stated) | 189 to 190
9 | Clc1ccccc1-c1cc(-c2ccccc2)c(-c2ccccc2)s1 | 103 to 107
10 | CN1C(=O)CCC2(C)c3ccc(SCc4cc5ccccc5cn4)cc3CCC12 (single isomer, unassigned; (+)) | 129 to 130
11 | CCC1(O)CC(=O)OCc2c1cc1n(c2=O)Cc2c-1nc1cc(F)ccc1c2-c1ccccc1 (configuration not stated) | > 250
12 | NS(=O)(=O)c1cccc(-c2cc(-c3nc(-c4ccc(C(F)(F)F)cc4)cc(C(F)F)n3)ccn2)c1 | 234
13 | c1ccc(C2=NC(c3ccccc3)C3=C(N2)c2nc(-c4ccccc4)cc(-c4ccccc4)c2CC3)cc1 (configuration not stated) | 142 to 144
14 | CCN(CC)C(=O)CC1CCN(Cc2cnc3c(C)c(NC(=O)c4ccc(-c5ccc(F)cc5)cc4)ccc3c2)CC1 | 158 to 160
15 | CON=C(C)c1cc2c(Cl)cc(F)c(-n3c(=O)cc(C(F)(F)F)n(C)c3=O)c2o1 | 176 to 178
16 | Cc1ccc(C(=O)c2cc(CCN(C)C)c(O)c(C(C)(C)C)c2)cc1 | 123 to 124
17 | CCOC(=O)c1cn(C)nc1C(F)F | 43 to 46
18 | O=c1[nH]c(CCN2CCCCC2)cc2c(O)cccc12 | 261 to 263
19 | CSc1cc2c(cc1F)C(=O)C(=O)N2 | 296
20 | CCNC(=O)C(C)(C)N=NC(C)(C)C(=O)NCC | 98
21 | COc1cc(C#N)c2c(c1OC)C(=O)CC2 | 150
22 | O=C1c2ccccc2C(=O)N1CC(=O)N1c2ccccc2N(Cc2cccc([N+](=O)[O-])c2)C(=O)[C@H]2CCC[C@H]21 (relative stereo) | 250 to 252
23 | O=C(O)COc1cccc(NCc2nc(-c3ccccc3)c(-c3ccccc3)o2)c1 | 146 to 151
24 | Cc1ccc(-c2ccc3c(c2)C=C(C(=O)Nc2ccc(CCl)cc2)CC3)cc1 | 178 to 179
25 | CCOC(=O)CC(=O)c1c(F)c(F)c(N2CCC(NC(C)=O)C2)c(F)c1F (configuration not stated) | 90 to 92
26 | CC(C)Cn1nnc2cc3c(=O)n(C(C)Cn4ncnn4)nnc3cc2c1=O (configuration not stated) | 132 to 134

Row | SMILES | melting point [°C]
27 | COCc1cc(O)c2nc(C)c(C)n2c1 | 164 to 165
28 | N#Cc1cccc2c1CCc1ccsc1-2 | 74.5 to 75
29 | CC12CCC(OC(=O)C(F)(F)F)CC1=CCC1=C2CCC2(C)C(=O)CCC12 (configuration not stated) | 109 to 115
30 | COC(=O)CC1CC(c2ccc(Cl)nc2)=NO1 (configuration not stated) | 94 to 96
31 | O=C(O)c1ccc(S(=O)(=O)Oc2c(Br)cc(-c3ccc(-c4c(Cc5ccccc5)sc5ccccc45)cc3)cc2Br)cc1O | 192 to 194
32 | Cc1cccc2nc(C(F)(F)F)n(C3CCC(=O)NC3=O)c(=O)c12 (configuration not stated) | 308 to 310
33 | N#CC1CCCCC1n1nc(-c2c(-c3ccccc3)nn3ccccc23)ccc1=O (configuration not stated) | 214
34 | OC1CSC(Oc2cncc(-c3ccc(F)c(F)c3)c2)C(O)C1O (configuration not stated) | 198 to 203
35 | CN1C(=O)N(C[C@H](C(=O)NOCc2ccccc2)[C@@H](CC2CCCC2)C(=O)N2CCCCC2)C(=O)C1(C)C | 138 to 140
36 | Cc1c2c(nc3ccccc13)CCN(C(=O)C(C)C)CC2 | 107
37 | Cc1nn(C)c2nc(N)[nH]c(=O)c2c1=O | > 300
38 | CN1c2ccncc2NC(c2ccccc2)c2cccn21 (configuration not stated) | 200 to 203
39 | Cc1cc(C)cc(C(=O)c2c(-c3ccc(OCC(O)CNC(C)C)cc3)oc3ccccc23)c1 (configuration not stated) | 154 to 157
40 | N#Cc1cnc2ccsc2c1Sc1ccc(Cl)cc1Cl | 126 to 128
41 | COc1cc(Nc2c(C#N)cnc3cc(Oc4ccncc4)c(OC)cc23)c(Cl)cc1Cl | 267 to 269
42 | COc1cc2c(cc1Br)-c1c(Cl)c3c(n1CC2)C(=O)N(C(C)(C)C)CCCC3 | 203 to 205
43 | CC(C)(C)NC(=S)Nc1cccc(SCCCC#N)n1 | 156 to 157
44 | COC(=O)[C@H]1N[C@@H](c2cccnc2)[C@@H]([N+](=O)[O-])[C@@H]1[C@@H](OCc1ccccc1)C(C)C | 70 to 71
45 | O=C(CNc1ccc2[nH]c(=O)oc2c1)N1CCC(Cc2ccc(F)cc2)CC1 | 202 to 205
46 | COc1cc2c(cc1OC)CCCC(C(=O)N1CCN(C(=S)c3cc(OC)c(OC)c(OC)c3)CC1)=C2 | 172 to 173
47 | CC(=O)N1c2ccccc2-c2c([N+](=O)[O-])cnn2C1(C)C | 182 to 183
48 | CCCN(CCC)Cc1nc(-c2ncn3c2CN(C)C(=O)c2ccccc2-3)no1 | 130 to 132
49 | O=c1c2c(Cc3ccc(OC(F)(F)F)cc3)n[nH]c2c2cccnc2n1-c1cccc(C(F)(F)F)c1 | 134 to 137
50 | CN1CC(CCN2C(=O)c3ccccc3C2=O)Oc2ncccc2C1=O (configuration not stated) | 146 to 147
51 | COC(=O)c1cccc(-c2c(C)cc(OC3CCS(=O)(=O)CC3)cc2C)c1 | 180
52 | CNc1cc(Oc2ccc3c(C(=O)Nc4cccc(C(F)(F)F)c4)cncc3c2)ncn1 | 205 to 208

Next, values leading:

Row | melting point [°C] | SMILES
53 | 227 to 231 | COc1cccc2c(=O)[nH]c(-c3ccccc3)cc12
54 | 192 to 198 | O=C(O)CCc1cc2cc(Cl)c(Cl)cc2n1S(=O)(=O)c1ccccc1
55 | 164 to 166 | CS(=O)(=O)c1ccc(-c2cc(C(=O)CCCO)nn2-c2ccc(F)cc2)cc1
56 | 95 | CC(O)(C1=CCN(CCCC(=O)c2ccc(F)cc2)CC1)c1ccc(F)cc1 (configuration not stated)
57 | 58 | CCCCCCCCCCCCCCNCc1ccc(OCc2cccc(F)c2)cc1
58 | 192 | CCOC(=O)C1C(=O)Nc2ccccc2SC1c1ccc(OC)cc1 (configuration not stated)
59 | 62.3 to 64.7 | Nc1c(Cl)cc(C(O)CNCCCCCCOCCCCCCc2ccc3ccccc3n2)cc1Cl (configuration not stated)
60 | 143 to 147 | COC(=O)CP(=O)(O)C(CCc1ccccc1)NC(=O)OCc1ccccc1 (configuration not stated)
61 | 156 to 159 | CCOC(=O)Cc1ccc(N(C)c2nc(=O)c3cccnc3s2)cc1
62 | 162 to 164 | CCCCc1oc2ccccc2c1C(=O)Nc1ccc2cc(O)ccc2c1
63 | 141 to 143 | COc1cc2c(Nc3ccc(Cl)cc3F)ncnc2cc1O
64 | 116 | CN(C(=O)Nc1ccc(Cl)c(Cl)c1)S(=O)(=O)C(C)(C)C
65 | 119 | Cc1cc(SCc2sc(-c3ccc(F)c(F)c3)nc2C)ccc1OCC(=O)O
66 | 192 to 194 | COc1cc(C(=O)O)ccc1Oc1ccccc1N
67 | 137 to 140 | Cn1cc2c(C=O)c(Br)ccc2n1
68 | 168 to 171 | CCCc1ccc(OCCc2c[nH]cn2)cc1
69 | > 310 | Cc1nc(N)nc(N)c1N1CCN(c2ccc(C(=O)NCC(=O)O)cc2)CC1
70 | 113 to 115 | CC1SCN(CCCCN2CCN(c3nsc4ccccc34)CC2)C1=O (configuration not stated)
71 | 229 to 230 | CCOC(=O)/C=C/c1sc(-n2cnc3ccccc32)nc1C(C)C
72 | 160 | CC(C)C(=O)CC1NC(=O)c2ccsc2-n2cccc21 (configuration not stated)
73 | 94 to 95 | CCCC(=O)c1ccc(OCCCCCC(=O)O)c(Cl)c1Cl
74 | 106 to 108 | CCN(CC)c1ccc2cc(C(=O)OCCO)c(=O)oc2c1
75 | 161 to 163 | CCOc1nc2c(c3ccccc13)c1cc(Cl)ccc1n2C

Row | melting point [°C] | SMILES
76 | 177 to 179 | COc1ccc2[nH]c(C(=O)C(C)(C)c3ccc(Cl)cc3)cc2c1
77 | 61 | CCCN(CCC)C(=O)n1cnc(S(=O)(=O)C(C)C)n1
78 | 42 to 43 | CCCCCCCCCC[C@H](CC(=O)OC(C)(C)C)C(=O)N1C(=O)OC[C@@H]1C(C)C
79 | 125 to 131 | COCCOC(=O)c1ccccc1Nc1nc(Nc2cc3c(cc2OC)CCN(CCO)CC3)ncc1Cl
80 | 106 to 110 | CCCCc1oc2ccccc2c1C(=O)O
81 | 144 to 146 | CCCC[C@H](NC(=O)[C@@H](NC(=O)OCc1ccccc1)c1ccccc1)C(=O)CSCc1ccco1
82 | 206 to 208 | Cc1c(-c2ccccc2)oc2c(C(=O)NCCO)cccc2c1=O
83 | 168 to 169 | CC1(C)SC(=S)N(Cc2ccco2)C(=O)C1NC(=O)c1ccccc1 (configuration not stated)
84 | 100 to 102 | CCCCCCCN(CC)C(=O)CCC(=O)c1ccc(NS(C)(=O)=O)cc1
85 | 86 to 87 | COC(=S)OC(C(=O)O)c1ccccc1 (configuration not stated)
86 | 130 to 132 | CNc1nccc(-c2cc(NCCCNCCCOC)c3cc(OC)ccc3c2)n1
87 | 180 to 181 | O=C(Nc1c[nH]nc1C(=O)NCC(O)Cc1ccccc1)c1ccccn1 (configuration not stated)
88 | 139 | CN(C)c1ccc(C(O)C#Cc2ccc(C(=O)O)cc2)cc1C(C)(C)C (configuration not stated)
89 | 149 to 150 | Cn1c(=O)n(Cc2ccccc2)c(=O)c2cc(I)ccc21
90 | 215 | O=C(NC(=O)c1c(O)cccc1F)Nc1ccc(Cl)cc1
91 | 175 to 176 | CSc1ccc(/C=C2\C=C(CCN(O)C(N)=O)c3ccccc32)cc1
92 | 65 to 68 | COC(=O)c1ccc(NC(=O)C(CC2CCCC2)c2ccc(N)cc2)nc1 (configuration not stated)
93 | 232 to 234 | NC(=O)c1sc2nccc(NCCCc3ccccc3)c2c1N
94 | 98 to 100 | OC(CNc1ccc(Cl)c(Cl)c1)Cn1ccnc1 (configuration not stated)
95 | 102 to 104 | CCC(C)(C(=O)N(C)C)n1cc(C)c(-c2ccccc2)n1 (configuration not stated)
96 | 165 to 168 | O=C(O)Cn1cc(Cc2nc3c(F)c(F)cc(F)c3s2)c2cc(OCc3ccccc3)ccc21
97 | 148 to 152 | CCCCN(CCCC)c1ccc(C2(c3cc(Nc4ccccc4)ccc3OC)OC(=O)c3ccccc32)c(O)c1 (configuration not stated)
